# Experimental data published in US11325913B2, “Compounds and methods for the treatment of malaria” (THE BROAD INSTITUTE, INC., priority 2013, dated 2022).
# Tested on: P. falciparum Dd2
# Assay: Activity against the Dd2 strain of P. falciparum (SYBR Green I, 72 h)
# Format: cell-based
# Conditions: Plasmodium falciparum, DD2, 72 h, P. falciparum Dd2, 72 h incubation
# Protocol: The Dd2 strain of P. falciparum was cultured in complete medium (RPMI with L-glutamine, 4.3% heat-inactivated O-positive human serum, 2.08 mg/ml albumax, 0.013 mg/ml hypoxanthine, 1.17 mg/ml glucose, 0.18% NaHCO3, 0.031 M Hepes, 2.60 mM NaOH, and 0.043 mg/ml gentamicin) until the parasitemia reached 3-8%. Parasitemia was determined by checking at least 500 red blood cells from a Giemsa-stained blood smear. The Dd2 cultures along with tested O-positive red blood cells were centrifuged at room temperature at 2,000 rpm for 5 minutes using an Eppendorf centrifuge 5810R with an A-4-81 rotor. The medium was aspirated off. For the compound screening, a parasite dilution at a 1% parasitemia and 1.0% hematocrit was created with screening medium (RPMI with L-glutamine, 4.16 mg/ml albumax II, 0.013 mg/ml hypoxanthine, 1.73 mg/ml glucose, 0.18% NaHCO3, 0.031 M Hepes, 2.60 mM NaOH, and 0.043 mg/ml gentamicin). The suspension was gassed with 93% nitrogen, 4% carbon dioxide, and 3% oxygen and placed at 37° C. until needed. Using a liquid dispenser, 20 μl of screening medium was dispensed into 384-well, black, clear-bottom plates. With a PinTool, 100 nl of compounds dissolved in DMSO was transferred into the assay plates along with control compound (mefloquine). Next, 30 μl of the parasite suspension in screening medium was then dispensed into the assay plates such that the final parasitemia was 1% and the final hematocrit was 1.0%. Final concentration of DMSO was 0.125%. Mefloquine at a final concentration of 20 μM and DMSO at a final concentration of 0.125% were used within the assay plates to serve as background and baseline controls, respectively. The assay plates were transferred to incubators (93% nitrogen, 4% carbon dioxide, and 3% oxygen during the 72 h incubation at 37° C.). Ten microliters of detection reagent consisting of 10×SYBR Green I (Invitrogen; supplied in 10,000× concentration) in lysis buffer (20 mM Tris-HCl, 5 mM EDTA, 0.16% Saponin wt/vol, 1.6% Triton X vol/vol) was dispensed into the assay plates. For optimal staining, the assay plates were left at room temperature for 24 h in the dark. The assay plates were read by using an Envision (PerkinElmer) reader, with 505 dichroic mirrors with 485-nm excitation and 530-nm emission settings, and the plate reads were from the bottom.
# By following the above-described protocol, the 50% effective concentration (EC50) for compounds 1-95 was measured against P. falciparum Dd2 and the results are shown in Table 2: […]
row,EC50 [nM],SMILES
1,5170,"COc1ccc(NC(=O)N2CCCCN3[C@H](CO)[C@H](c4ccc(-c5csc(-c6ccccc6)n5)cc4)[C@@H]3C2)cc1 [Compound 39, (8R,9R,10S)-10-(hydroxymethyl)-N-(4-methoxyphenyl)-9-[4-(2-phenyl-1,3-thiazol-4-yl)phenyl]-1,6-diazabicyclo[6.2.0] decane-6-carboxamide]"
2,5160,"COc1ccc(S(=O)(=O)N2CCCCN3[C@H](CO)[C@H](c4ccc(C#Cc5ccccc5)cc4)[C@@H]3C2)cc1 [Compound 40, [(8R,9R,10S)-6-(4-methoxybenzene-sulfonyl)-9-[4-(2-phenylethynyl)phenyl]-1,6-diazabicyclo[6.2.0]decan-10-yl]methanol]"
3,9830,"COc1ccc(NC(=O)N2CCCCN3[C@H](CO)[C@H](c4ccc(-c5ccccc5)cc4)[C@@H]3C2)cc1 [Compound 41, (8R,9R,10S)-10-(hydroxymethyl)-N-(4-methoxyphenyl)-9-(4-phenylphenyl)-1,6-diazabicyclo[6.2.0] decane-6-carboxamide]"
4,9680,"COc1ccc(NC(=O)N2CCCCN3[C@H](CO)[C@H](c4ccc(-c5ccc(F)cc5)cc4)[C@@H]3C2)cc1 [Compound 42, (8R,9R,10S)-9-[4-(4-fluorophenyl)phenyl]-10-(hydroxymethyl)-N-(4-methoxyphenyl)-1,6-diazabicyclo[6.2.0] decane-6-carboxamide]"
5,229,"COc1ccc(NC(=O)N2CCCCN3C[C@H](c4ccc(C#Cc5ccccn5)cc4)[C@@H]3C2)cc1 [Compound 43, (8R,9S)-N-(4-methoxyphenyl)-9-{4-[2-(pyridin-2-yl)ethynyl]phenyl}-1,6-diazabicyclo[6.2.0] decane-6-carboxamide]"
6,1100,"O=C(NC1CCCCC1)N1CCCCN2[C@H](CO)[C@H](c3ccc(C#Cc4ccccc4)cc3)[C@@H]2C1 [Compound 44, (8R,9R,10S)-N-cyclohexyl-10-(hydroxymethyl)-9-[4-(2-phenylethynyl)phenyl]-1,6-diazabicyclo[6.2.0] decane-6-carboxamide]"
7,846,"COc1ccc(NC(=O)N2CCCCN3[C@H](CO)[C@H](c4ccc(C#CC5CCCCC5)cc4)[C@@H]3C2)cc1 [Compound 45, (8R,9R,10S)-9-[4-(2-cyclohexylethynyl)phenyl]-10-(hydroxymethyl)-N-(4-methoxyphenyl)-1,6-diazabicyclo[6.2.0] decane-6-carboxamide]"
8,17800,"COc1ccc(NC(=O)N2CCCCN3[C@H](CO)[C@H](c4ccc(-c5ccccc5F)cc4)[C@@H]3C2)cc1 [Compound 46, (8R,9R,10S)-9-[4-(2-fluorophenyl)phenyl]-10-(hydroxymethyl)-N-(4-methoxyphenyl)-1,6-diazabicyclo[6.2.0] decane-6-carboxamide]"
9,23,"COc1ccc(NC(=O)N2C/C=C\CN3[C@H](CO)[C@H](c4ccc(C#Cc5ccccc5)cc4)[C@@H]3C2)cc1 [Compound 47, (8R,9R,10S)-10-(hydroxymethyl)-N-(4-methoxyphenyl)-9-[4-(2-phenylethynyl)phenyl]-1,6-diazabicyclo[6.2.0]dec-3-ene-6-carboxamide]"
10,36,"COc1ccc(NC(=O)N2CCCCN3[C@@H](CN)[C@H](c4ccc(C#Cc5ccccc5)cc4)[C@@H]3C2)cc1 [Compound 48, (8R,9S,10R)-10-(aminomethyl)-N-(4-methoxyphenyl)-9-[4-(2-phenylethynyl)phenyl]-1,6-diazabicyclo[6.2.0] decane-6-carboxamide]"
11,65,"O=C(Nc1ccccc1F)N1CCCCN2[C@H](CO)[C@H](c3ccc(C#Cc4ccccc4)cc3)[C@@H]2C1 [Compound 49, (8R,9R,10S)-N-(2-fluorophenyl)-10-(hydroxymethyl)-9-[4-(2-phenylethynyl)phenyl]-1,6-diazabicyclo[6.2.0] decane-6-carboxamide]"
12,1230,"O=C(Nc1ccncc1)N1CCCCN2[C@H](CO)[C@H](c3ccc(C#Cc4ccccc4)cc3)[C@@H]2C1 [Compound 50, (8R,9R,10S)-10-(hydroxymethyl)-9-[4-(2-phenylethynyl)phenyl]-N-(pyridin-4-yl)-1,6-diazabicyclo[6.2.0] decane-6-carboxamide]"
13,11,"COc1ccc(NC(=O)N2CCCCN3[C@H](CO)[C@H](c4ccc(C#Cc5ccc(F)cc5)cc4)[C@@H]3C2)cc1 [Compound 51, (8R,9R,10S)-9-{4-[2-(4-fluorophenyl)ethynyl]phenyl}-10-(hydroxymethyl)-N-(4-methoxyphenyl)-1,6-diazabicyclo[6.2.0] decane-6-carboxamide]"

# Further lines, the molecule ahead of its results:
row,SMILES,EC50 [nM]
1,"Cc1ccc(-c2ccc([C@@H]3[C@H](CO)N4CCCCN(S(=O)(=O)c5cccc(C)c5)C[C@@H]34)cc2)cc1 [Compound 26, ((8R,9S,10R)-9-(4′-methyl-[1,1′-biphenyl]-4-yl)-6-(m-tolylsulfonyl)-1,6-diazabicyclo[6.2.0]decan-10-yl)methanol]",955
2,"O=C(Nc1cccc(F)c1)N1CCCCN2[C@@H](CO)[C@H](c3ccc(C#Cc4cccnc4)cc3)[C@@H]2C1 [Compound 28, (8R,9R,10R)-N-(3-fluorophenyl)-10-(hydroxymethyl)-9-(4-(pyridin-3-ylethynyl)phenyl)-1,6-diazabicyclo[6.2.0] decane-6-carboxamide]",368
3,"COc1ccc(C#Cc2ccc([C@@H]3[C@H](CO)N4CCCCN(C(=O)Nc5ccccc5F)C[C@@H]34)cc2)cc1 [Compound 29, (8R,9S,10R)-N-(2-fluorophenyl)-10-(hydroxymethyl)-9-(4-((4-methoxyphenyl)ethynyl)phenyl)-1,6-diazabicyclo[6.2.0] decane-6-carboxamide]",898
4,"O=C(Nc1ccccc1)N1CCCCN2[C@H](CO)[C@H](c3ccc(C#Cc4ccccc4)cc3)[C@@H]2C1 [Compound 30, (8R,9R,10S)-10-(hydroxymethyl)-N-phenyl-9-(4-(phenylethynyl)phenyl)-1,6-diazabicyclo[6.2.0] decane-6-carboxamide]",42
5,"COc1ccc(NC(=O)N2CCCCN3[C@H](CO)C(c4ccccc4)[C@@H]3C2)cc1 (stereo partly drawn) [Compound 31, (8R,10S)-10-(hydroxymethyl)-N-(4-methoxyphenyl)-9-phenyl-1,6-diazabicyclo[6.2.0] decane-6-carboxamide]",1820
6,"COc1ccc(NC(=O)N2CCCCN3[C@H](CN4CCN(C)CC4)[C@H](c4ccc(C#Cc5ccccc5)cc4)[C@@H]3C2)cc1 [Compound 32, (8R,9S,10S)-N-(4-methoxyphenyl)-10-[(4-methylpiperazin-1-yl)methyl]-9-[4-(2-phenylethynyl)phenyl]-1,6-diazabicyclo[6.2.0] decane-6-carboxamide]",158
7,"COc1ccc(NC(=O)N2CCCCN3[C@H](CN4CCC(C)(O)CC4)[C@H](c4ccc(C#Cc5ccccc5)cc4)[C@@H]3C2)cc1 [Compound 33, (8R,9S,10S)-10-[(4-hydroxy-4-methylpiperidin-1-yl)methyl]-N-(4-methoxyphenyl)-9-[4-(2-phenylethynyl)phenyl]-1,6-diazabicyclo[6.2.0] decane-6-carboxamide]",2320
8,"COc1ccc(NC(=O)N2CCN3[C@H](CO)[C@H](c4ccc(C#Cc5ccccc5)cc4)[C@@H]3C2)cc1 [Compound 34, (6R,7R,8S)-8-(hydroxymethyl)-N-(4-methoxyphenyl)-7-[4-(2-phenylethynyl)phenyl]-1,4-diazabicyclo[4.2.0] octane-4-carboxamide]",4660
9,"COc1ccc(NC(=O)N2CCCCN3[C@H](COCC(=O)O)[C@H](c4ccc(C#Cc5ccccc5)cc4)[C@@H]3C2)cc1 [Compound 35, 2-{[(8R,9R,10S)-6-[(4-methoxyphenyl)carbamoyl]-9-[4-(2-phenylethynyl)phenyl]-1,6-diazabicyclo[6.2.0]decan-10-yl]methoxy}acetic acid]",65
10,"COc1ccc(C(=O)N2CCCCN3[C@H](CO)[C@H](c4ccc(C#Cc5ccccc5)cc4)[C@@H]3C2)cc1 [Compound 36, [(8R,9R,10S)-6-(4-methoxybenzoyl)-9-[4-(2-phenylethynyl)phenyl]-1,6-diazabicyclo[6.2.0]decan-10-yl]methanol]",7900
11,"COc1ccc(NC(=O)N2CCCCN3[C@H](CO)[C@H](c4ccc(C#Cc5cccc(F)c5)cc4)[C@@H]3C2)cc1 [Compound 38, (8R,9R,10S)-9-{4-[2-(3-fluorophenyl)ethynyl]phenyl}-10-(hydroxymethyl)-N-(4-methoxyphenyl)-1,6-diazabicyclo[6.2.0] decane-6-carboxamide]",15
